Data from patent US20240409543A1, “PYRROLOPYRAZOLE SPIRO COMPOUND” (CHIA TAI TIANQING PHARMACEUTICAL GROUP CO., LTD., priority 2021, published 2024).

Key:
[1] = In-vivo pharmacokinetic study in mice; set-up: species or system male CD-1 mice; settings: male, CD-1, mouse, plasma
Protocol: (§1) This experiment was intended to evaluate the pharmacokinetic behavior of each compound after a single intravenous injection and intragastric administration and to investigate the bioavailability after intragastric administration.
Male CD-1 mice aged 7 to 10 weeks were selected. The mice were fasted for at least 12 h before administration and were allowed to feed again 4 h after administration, with free access to water throughout the experiment.
On the day of the experiment, animals in the intravenous group were given the corresponding compound by a single injection via the tail vein at an administration volume of 5 mL/kg; animals in the oral group were given the corresponding compound by a single intragastric administration at an administration volume of 10 mL/kg. The animals were weighed before administration, and the administration volume was calculated based on their body weight. Sample collection time points: For the injection group, samples were collected at 0.083 h, 0.25 h, 0.5 h, 1 h, 2 h, 4 h, 8 h, and 24 h; for the intragastric group, samples were collected at 0.25 h, 0.5 h, 1 h, 2 h, 4 h, 6 h, 8 h, and 24 h. At each time point, approximately 30 μL of whole blood was collected via the saphenous vein, which was then used to prepare plasma for concentration determination by high performance liquid chromatography-tandem mass spectrometry (LC-MS/MS). All animals were euthanized with […] after the PK samples were taken at the last time point. The plasma concentrations were processed using a non-compartmental model of the pharmacokinetic software WmnNonlin™ Version 6.3 (Pharsight, Mountain View, CA), and the pharmacokinetic parameters were calculated using a linear log-trapezoidal method.

[2] = In-vivo pharmacokinetic study in rats; settings: male, SD, rat, plasma
Protocol: as §1
Male SD rats aged 7 to 10 weeks were selected. The rats were fasted for at least 12 h before administration and were allowed to feed again 4 h after administration, with free access to water throughout the experiment.
On the day of the experiment, animals in the intravenous group were given the corresponding compound by a single injection via the tail vein at an administration volume of 5 mL/kg; the oral group was given the corresponding compound by a single intragastric administration at an administration volume of 10 mL/kg. The animals were weighed before administration, and the administration volume was calculated based on their body weight. Sample collection time points: 0.083 h (injection group), 0.25 h, 0.5 h, 1 h, 2 h, 4 h, 6 h, 8 h, and 24 h. At each time point, approximately 200 μL of whole blood was collected via the jugular vein, which was then used to prepare plasma for concentration determination by high performance liquid chromatography-tandem mass spectrometry (LC-MS/MS).
All animals were euthanized with CO2 anesthesia after the PK samples were taken at the last time point. The plasma concentrations were processed using a non-compartmental model of the pharmacokinetic software WinNonlin™ Version 6.3 (Pharsight, Mountain View, CA), and the pharmacokinetic parameters were calculated using a linear log-trapezoidal method.

[3] = tested on: ERK phosphorylation in H358 cells; assay: Inhibitory activity against ERK phosphorylation in H358 cells (HTRF Phospho-ERK1/2 kit); type: cell-based; settings: Homo sapiens, NCI-H358; starved H358 cells, 1 h compound incubation; read-out: H358 cell ERK phosphorylation IC50
Protocol: H358 cells purchased from Nanjing Cobioer Biosciences Co., Ltd., 1640 medium purchased from Biological industries, fetal bovine serum purchased from Biosera, and Advanced Phospho-ERK1/2 (THR202/TYR204) KIT purchased from Cisbio.
• 1. H358 cells were plated in a transparent 96-well cell culture plate, with 80 μL of cell suspension per well, each well containing 10000 H358 cells. The cell plate was incubated in a CO2 incubator at 37° C. overnight. • 2. The cell supernatant was discarded, and a starvation medium (1640+0.02% fetal bovine serum+1% […]) was added at 80 μL/well. The cell plate was then incubated in a CO2 incubator for cell starvation treatment overnight; • 3. Each test compound was diluted with 100% DMSO to 4 mM as the first concentration, and then diluted in a 5-fold gradient to the 8th concentration (i.e., from 4 mM to […]) using a pipette. 1 μL of the compound was then added to 79 μL of cell starvation medium. The mixture was mixed well, and then the compound solution was added to the corresponding wells of the cell plate at 20 μL/well. The cell plate was then put back to the CO2 incubator for incubation for another 1 h. At that time, the concentration of the compound ranged from 10 μM to 0.0256 nM, with the concentration of DMSO being 0.25%. • 4. After the incubation was completed, the cell supernatant was discarded, and a cell lysis buffer was added at 50 μL/well. The plate was then incubated with shaking at room temperature for 30 min. 5. The Phospho-ERK1/2 Eu Cryptate antibody and Phospho-ERK1/2 d2 antibody were diluted in a 20-fold gradient with the Detection buffer. • 6. 16 μL of the cell lysate supernatant from each well was transferred to a new 384-well white microplate, and then 2 μL of the Phospho-ERK1/2 Eu Cryptate antibody dilution and 2 μL of the Phospho-ERK1/2 d2 antibody dilution were added to each well. The mixture was incubated at room temperature for 4 h. • 7. After the incubation was completed, HTRF values were read using a multimode microplate reader, with an excitation wavelength of 320 nm and emission wavelengths of 615 nm and 665 nm.
The original data were converted to inhibition rates and then the IC50 values were obtained by curve fitting using a four-parameter method.

[4] = tested on: human pancreatic cancer MIA PaCa-2 cell line subcutaneous xenograft; assay: In-vivo inhibition of MiaPaCa-2 subcutaneous xenograft tumor; set-up: species or system female BALB/c nude mouse
Protocol: To evaluate the antitumor effect of each test drug in a female BALB/c nude mouse animal model with subcutaneous xenograft of a human pancreatic cancer MIA PaCa-2 cell line.
MIA PaCa-2 cells were cultured in a DMEM medium containing 2.5% HS and 10% fetal bovine serum. MIA PaCa-2 cells in the logarithmic growth phase were collected and resuspended in PBS to achieve an appropriate concentration for subcutaneous tumor inoculation in nude mice.
The experimental mice were inoculated subcutaneously on the right dorsal side with 5×10^6 MIA PaCa-2 cells (the cells were resuspended in a 1:1 mixture of PBS and matrigel), with 0.1 mL per mouse. Tumor growth was observed regularly. Once the tumors reached an average volume of approximately 125 (100-150) mm^3, the mice were randomly divided into groups for administration based on the tumor size and body weight.
After the start of the administration, the body weight and tumor size of the mice were measured twice a week. Calculation formula for tumor volume: Tumor volume (mm^3)=1/2×(a×b^2) (where a represents long diameter and b represents short diameter).

[5] = iv, injection (tail vein), dose 2 mg/kg
[6] = oral administration, dose 10 mg/kg
[7] = oral administration, dose 20 mg/kg
[8] = Day 12, 30 mg/kg oral once daily
[9] = Day 39, 30 mg/kg oral once daily
[10] = iv, injection (tail vein), dose 1 mg/kg
[11] = oral 2 mg/kg vs injection 1 mg/kg
[12] = oral administration, dose 2 mg/kg

SMILES	AUC(0-t) [1, 5] [µM·h]	clearance [1, 5] [mL/min/kg]	bioavailability ([1]; oral 10 mg/kg vs injection 2 mg/kg) [%]	AUC(0-t) [1, 6] [µM·h]	Cmax [1, 6] [nM]	AUC(0-t) [2, 5] [µM·h]	clearance [2, 5] [mL/min/kg]	bioavailability ([2]; oral 20 mg/kg vs injection 2 mg/kg) [%]	AUC(0-t) [2, 7] [µM·h]	Cmax [2, 7] [nM]	IC50 [3] [nM]	Mean tumor volume [4, 8] [mm^3]	Inhibition rate (%) at day 39 [4, 9] [%]	Mean tumor volume [4, 9] [mm^3]	AUC(0-t) [1, 10] [µM·h]	clearance [1, 10] [mL/min/kg]	bioavailability [1, 11] [%]	AUC(0-t) [1, 12] [µM·h]	Cmax [1, 12] [nM]
Cc1nc(N2CCC3(CC2)Cn2nccc2C3N)c(CO)nc1Sc1ccnc(N)c1Cl (centres unmarked) [Compound 1]	2.53	27.7	69.5	8.6	3540	4.05	17.3	98	39.7	9730	21.2	129.20	63.1	278.34	–	–	–	–	–
CNc1nccc(Sc2nc(CO)c(N3CCC4(CC3)Cn3nccc3C4N)nc2C)c1Cl (centres unmarked) [Compound 2]	–	–	–	–	–	–	–	–	–	–	84.1	129.17	66.6	248.09	1.32	27	83.6	2.04	927
Cc1nc(N2CCC3(CC2)Cn2nccc2C3N)c(CO)nc1Sc1cccnc1C(F)(F)F (centres unmarked) [Compound 4]	–	–	–	–	–	–	–	–	–	–	75.8	–	–	–	0.974	35.5	58.6	0.99	372
Cc1nc(N2CCC3(CC2)Cn2nccc2C3N)c(CO)nc1Sc1ccnc(N)c1F (centres unmarked) [Compound 6]	–	–	–	–	–	–	–	–	–	–	57.1	–	–	–	0.638	68.3	89.8	0.817	463
